Data as given in patent US5807754A, “Combinatorial synthesis and high-throughput screening of a Rev-inhibiting arylidenediamide array” (Arqule, Inc., priority 1995, dated 1998).

What follows are compounds tested against Rev-RRE complexes (recombinant Rev protein, synthetic 32P-labelled RRE RNA) (Human immunodeficiency virus type 1 group M subtype B, UniProt P04618) (assay: Rev-RRE binding inhibition, nitrocellulose filter binding assay with scintillation counting). Details: array assayed at 6 ug/mL, non-specific competitor RNA.
Design: species or system Human Immunodeficiency Virus (HIV)
Procedure: The array was assayed in parallel at 6 ug/mL in reaction mixtures containing recombinant Rev protein, synthetic 32P-labelled RRE RNA, and a non-specific competitor RNA. The reaction is then filtered through nitrocellulose filters and washed with a low salt binding buffer. Rev-RRE complexes are retained in the filter while the unbound RRE filters through. Rev-RRE complexes retained in the filter are then quantified by scintillation counting. The percentage of inhibition is calculated according to the formula: […]
where CPM1 is the activity obtained in the presence of the drug and CPM0 is the average activity in the absence of the drug. […] Raising the criterion of interest to 90% inhibition of complex formation afforded a set of 55 compounds which were examined for common functionality. These 55 compounds and their inhibition values are listed in the following table, where A, B, and C are the structural diversity elements of the scaffold: […]

Sequence of Rev-RRE complexes (recombinant Rev protein, synthetic 32P-labelled RRE RNA) (P04618 whole entry, looked up, one chain of several): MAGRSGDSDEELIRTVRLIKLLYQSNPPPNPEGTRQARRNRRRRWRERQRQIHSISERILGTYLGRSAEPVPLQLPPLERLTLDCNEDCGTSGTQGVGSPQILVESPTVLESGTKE

Row | Structure (SMILES) | % inh [%]
1 | O=C(NC(c1ccccc1)c1ccccc1)/C(=C/c1cccc(C(F)(F)F)c1)NC(=O)c1ccc2ccccc2c1 | 93

Same assay, conditions: array assayed at 6 ug/mL, non-specific competitor RNA, listed as 2-napbthyl / α,α,α-trifluoro-m-toluyl / 1,2,3,4-tetrahydronaphth-1-yl

Row | Structure (SMILES) | % inh [%]
2 | O=C(NC1CCCc2ccccc21)/C(=C/c1cccc(C(F)(F)F)c1)NC(=O)c1ccc2ccccc2c1 (stereo not shown) | 90

Same assay, conditions: array assayed at 6 ug/mL, non-specific competitor RNA, read-out: % inh

Row | Structure (SMILES) | inhibition at 6 µg/mL [%]
3 | Cc1ccc(CCNC(=O)/C(=C/c2ccc(-c3ccccc3)cc2)NC(=O)c2ccc(Cl)cc2Cl)cc1 | 94
4 | O=C(NC(c1ccccc1)c1ccccc1)/C(=C/c1cccc(C(F)(F)F)c1)NC(=O)c1ccc(Cl)cc1Cl | 96
5 | O=C(NCc1cccc2ccccc12)/C(=C/c1cnc2ccccc2c1)NC(=O)c1ccc2ccccc2c1 | 96
6 | CC(C)CC(CO)NC(=O)/C(=C/c1cccc(C(F)(F)F)c1)NC(=O)c1ccc2ccccc2c1 (stereo not shown) | 94
7 | O=C(N/C(=C\c1ccc(C(F)(F)F)cc1)C(=O)N1CCN(c2ccccc2)CC1)c1ccc(C(F)(F)F)cc1 | 91
8 | COc1cccc(/C=C(\NC(=O)c2ccc3ccccc3c2)C(=O)NC(c2ccccc2)c2ccccc2)c1 [2-naphthyl / m-anisyl / diphenylmethyl] | 94
9 | O=C(NCC(c1ccccc1)c1ccccc1)/C(=C/c1cc(F)cc(F)c1)NC(=O)c1ccc(Cl)cc1Cl | 94
10 | O=C(NC(c1ccccc1)c1ccccc1)/C(=C/c1cccc(Cl)c1)NC(=O)c1ccc2ccccc2c1 | 92
11 | CCC(CC)NC(=O)/C(=C/c1cccc(C(F)(F)F)c1)NC(=O)c1ccc2ccccc2c1 | 93
12 | O=C(NC1CCCc2ccccc21)/C(=C/c1cccc(C(F)(F)F)c1)NC(=O)c1ccc2ccccc2c1 (stereo not shown) | 97
13 | O=C(NCC(c1ccccc1)c1ccccc1)/C(=C/c1cccc(C(F)(F)F)c1)NC(=O)c1ccc2ccccc2c1 | 93
14 | O=C(NCCCc1ccccc1)/C(=C/c1ccc(C(F)(F)F)cc1)NC(=O)c1ccc2ccccc2c1 | 91
15 | O=C(NCCc1ccccc1)/C(=C/c1ccc(-c2ccccc2)cc1)NC(=O)c1ccc(Cl)cc1Cl | 91
16 | O=C(NCC(c1ccccc1)c1ccccc1)/C(=C/c1ccc(F)cc1)NC(=O)c1ccc2ccccc2c1 | 90
17 | O=C(NC1CCCc2ccccc21)/C(=C/c1ccc(C(F)(F)F)cc1)NC(=O)c1ccc2ccccc2c1 (stereo not shown) | 95
18 | O=C(NCC(c1ccccc1)c1ccccc1)/C(=C/c1cccc(C(F)(F)F)c1)NC(=O)c1ccc(Cl)cc1Cl | 93
19 | O=C(NC(c1ccccc1)c1ccccc1)/C(=C/c1cccc(C(F)(F)F)c1)NC(=O)c1ccc2ccccc2c1 | 96
20 | O=C(Nc1cccnc1)/C(=C/c1ccc(Cl)cc1Cl)NC(=O)c1ccc2ccccc2c1 | 91
21 | Cc1ccc(C(=O)N/C(=C\c2ccc(F)cc2F)C(=O)NCC(O)c2ccccc2)cc1 (stereo not shown) | 96
22 | O=C(NCc1ccco1)/C(=C/c1cccc(C(F)(F)F)c1)NC(=O)c1ccc2ccccc2c1 | 93
23 | O=C(N/C(=C\c1cccc(C(F)(F)F)c1)C(=O)N1CCC(Cc2ccccc2)CC1)c1ccc2ccccc2c1 | 95
24 | Cc1ccc(C(=O)N/C(=C\c2ccccc2Cl)C(=O)NCCCN2CCOCC2)cc1 | 95
25 | O=C(NC(c1ccccc1)c1ccccc1)/C(=C/c1ccc(OC(F)(F)F)cc1)NC(=O)c1ccc2ccccc2c1 | 96
26 | Cc1ccc(CCNC(=O)/C(=C/c2cccc(Oc3ccccc3)c2)NC(=O)c2ccc(Cl)cc2Cl)cc1 | 95
27 | O=C(NC1CCCc2ccccc21)/C(=C/c1cccc(Oc2ccccc2)c1)NC(=O)c1ccc(C(F)(F)F)cc1 (stereo not shown) | 90

Row | Structure (SMILES) | inhibition at 6 µg/mL [%]
28 | O=C(NC1CCc2ccccc21)/C(=C/c1ccc(C(F)(F)F)cc1)NC(=O)c1ccc2ccccc2c1 (stereo not shown) | 92
29 | O=C(Nc1cccnc1)/C(=C/c1ccccc1F)NC(=O)c1ccccc1 [phenyl / 2-fluorophenyl / 3-pyridinyl] | 91
30 | Cc1ccc(C(=O)N/C(=C\c2ccccc2Cl)C(=O)NCc2cccc3ccccc23)cc1 | 90
31 | O=C(NCC(c1ccccc1)c1ccccc1)/C(=C/c1ccc(C(F)(F)F)cc1)NC(=O)c1ccc2ccccc2c1 | 95
32 | Cc1ccc(CCNC(=O)/C(=C/c2ccc(C(F)(F)F)cc2)NC(=O)c2ccc(C(F)(F)F)cc2)cc1 | 95
33 | O=C(NC1CCCCC1)/C(=C/c1ccccc1)NC(=O)c1ccc(Cl)cc1Cl [2,4-dichlorophenyl / phenyl / cyclohexyl] | 98
34 | O=C(NCc1cccc2ccccc12)/C(=C/c1cccc(C(F)(F)F)c1)NC(=O)c1ccc2ccccc2c1 | 94
35 | O=C(NCc1cccc2ccccc12)/C(=C/c1ccc(F)cc1F)NC(=O)c1ccc2ccccc2c1 | 93
36 | Cc1ccc(CCNC(=O)/C(=C/c2cccc(C(F)(F)F)c2)NC(=O)c2ccc3ccccc3c2)cc1 | 96
37 | O=C(N/C(=C\c1cccc(Oc2ccccc2)c1)C(=O)N1CCN(c2ccccc2)CC1)c1ccc(C(F)(F)F)cc1 | 90
38 | O=C(N/C(=C\c1ccc(C(F)(F)F)cc1)C(=O)N1CCC(Cc2ccccc2)CC1)c1ccc2ccccc2c1 | 91
39 | O=C(NCc1ccccc1)/C(=C/c1ccc(-c2ccccc2)cc1)NC(=O)c1ccc(Cl)cc1Cl | 94
40 | O=C(NCC(O)c1ccccc1)/C(=C/c1ccc(Cl)cc1Cl)NC(=O)c1ccc2ccccc2c1 (stereo not shown) | 95
41 | O=C(NC(c1ccccc1)c1ccccc1)/C(=C/c1cccc(Oc2ccccc2)c1)NC(=O)c1ccc(C(F)(F)F)cc1 | 94
42 | O=C(N/C(=C\c1ccc(C(F)(F)F)cc1)C(=O)N1CCN(c2cccc(C(F)(F)F)c2)CC1)c1ccc(Cl)cc1Cl | 90
43 | O=C(NCc1cccc2ccccc12)/C(=C/c1ccc(-c2ccccc2)cc1)NC(=O)c1ccc(Cl)cc1Cl | 90
44 | O=C(NC1CCCc2ccccc21)/C(=C/c1cccc(C(F)(F)F)c1)NC(=O)c1ccc(Cl)cc1Cl (stereo not shown) | 90
45 | O=C(NC(c1ccccc1)c1ccccc1)/C(=C/c1ccc(-c2ccccc2)cc1)NC(=O)c1ccc(Cl)cc1Cl | 96
46 | O=C(NC1CCc2ccccc21)/C(=C/c1cccc(C(F)(F)F)c1)NC(=O)c1ccc2ccccc2c1 (stereo not shown) | 92
47 | O=C(NC1CCCc2ccccc21)/C(=C/c1ccc(OC(F)(F)F)cc1)NC(=O)c1ccc2ccccc2c1 (stereo not shown) | 94
48 | COc1cccc(/C=C(\NC(=O)c2ccc3ccccc3c2)C(=O)NCCc2ccccc2)c1 [2-naphthyl / m-anisyl / phenethyl] | 91
49 | O=C(NC1CCc2ccccc21)/C(=C/c1ccc(-c2ccccc2)cc1)NC(=O)c1ccc(Cl)cc1Cl (stereo not shown) | 90
50 | O=C(NC1CCCc2ccccc21)/C(=C/c1ccc(-c2ccccc2)cc1)NC(=O)c1ccc(Cl)cc1Cl (stereo not shown) | 92
51 | O=C(NC1CCCc2ccccc21)/C(=C/c1ccc(Cl)cc1)NC(=O)c1ccc(C(F)(F)F)cc1 (stereo not shown) | 92
52 | O=C(NC1CCCc2ccccc21)/C(=C/c1ccc(C(F)(F)F)cc1)NC(=O)c1ccc(C(F)(F)F)cc1 (stereo not shown) | 94

Same assay, conditions: read-out: % inh, array assayed at 6 ug/mL, non-specific competitor RNA

Row | Structure (SMILES) | inhibition at 6 µg/mL [%]
53 | O=C(NC(c1ccccc1)c1ccccc1)/C(=C/c1ccc(C(F)(F)F)cc1)NC(=O)c1ccc2ccccc2c1 | 96
54 | CC(CCc1ccccc1)NC(=O)/C(=C/c1ccc(C(F)(F)F)cc1)NC(=O)c1ccc2ccccc2c1 (stereo not shown) | 96
55 | O=C(Nc1cccnc1)/C(=C/c1cc(F)cc(F)c1)NC(=O)c1ccc(Cl)cc1Cl | 91
